According to patent US8481600B2, “Formulation of aspirin that is stable and showing minimal hydrolysis for parenteral administration for the treatment of cardiovascular and other disease states” (Academic Pharmaceuticals, Inc., priority 2007, dated 2013):
“And” between values parts separate entries of the source, which are not always exact repeats. Equal values may be shown once.

Assays:
[1] = Solution compatibility: NNDMA solution of ASA diluted with diluents, HPLC; format: physicochemical; conditions: for Assay of Compounds: Aspirin / Assay of Compounds: Salicylic Acid: ASA in NNDMA diluted with D5W, RT
Protocol: In another series of experiments, 1 ml of the solution containing only NNDMA (Table 3) was diluted with 100 ml of diluents such as 1. distilled H2O, 2. Ringers lactate solution, 3. D5W and 4. normal saline and then the pH of these solutions were adjusted to 6.5 with 1 N NaOH. […] After 12 hours of storage, however, the hydrolysis of ASA was observed (up to 5% within 24 hours). […] One skilled in the art will recognize that modifications may be made in the persent invention without deviating from the spirit or scope of this invention which is illustrated further by the specific examples of dissolution attempts described herein and these examples are not to be construed as limiting the scope of this invention.
(§1) A 10 μl solution of this formulation is tested using the following HPLC procedure for analysis. A constant-flow pump, Thermo-Finnigan Spectra-System P2000 was used to deliver eluent solvent at a rate of 1 ml/min to a column, Luna, 5μ, C8(2), 100 A, […] (Phenomenex, Calif.). The eluent solvent system was NaH2PO4 (0.025 M): Na2HPO4 (0.25 M): MeOH (25:25:50 V/V) pH adjusted to 3.2 with either phosphoric acid or concentrated HCL. Methanolic solutions of aspirin and salicylic acid 10 μl (concentration of 1 mg/ml) were injected onto the column. The eluted compounds were detected using a Spectra 200 programmable UV wavelength detector and Thermo-Finnigan Chrome Jet integrator. The wavelength of detector was either […]. Under these conditions, retention times for aspirin and hydrolysis product, salicylic acid was approximately 1.75 minutes and 3.34 minutes respectively. […]

[2] = HPLC analysis of ASA solutions for hydrolysis to salicylic acid (stability on storage); format: physicochemical
Protocol: as §1

[3] = 25° C.; cited from earlier work
[4] = 1 ml NNDMA solution diluted in D5W, after 12 hours (FIG. 6)
[5] = a. H2O (2.0 ml), 1-Propanol (0.5 ml), Tween 20 (0.5 ml), within 1 hr
[6] = aspirin dissolved in water (2 ml), upon mixing (FIG. 1)
[7] = glycerin (1 ml), 1-propanol (3 ml), Tween 80 (0.2 ml), upon mixing (FIG. 2)

CC(=O)Oc1ccccc1C(=O)O [ASA, aspirin]
HPLC peak 2 [1, 4]: 0.3% | HPLC peak 3 [1, 4]: 0.4% | aspirin purity, HPLC peak 1 ([1]; 1 ml NNDMA solution diluted in distilled water and glucose (D5W), after 12 hours (FIG. 6)): 95% and 94.8% | appearance of diluted solutions ([1]; 1 ml NNDMA solution in 100 ml distilled H2O, Ringers lactate, D5W or normal saline, pH 6.5, after several days): remained clear | hydrolysis of ASA ([1]; 1 ml NNDMA solution in 100 ml distilled H2O, Ringers lactate, D5W or normal saline, pH 6.5, up to 12 hours of storage): < 1% | hydrolysis of ASA ([1]; 1 ml NNDMA solution in 100 ml distilled H2O, Ringers lactate, D5W or normal saline, pH 6.5, within 24 hours): up to 5% | Assay of Compounds: Aspirin ([1]; up to 12 hours): >99% | Assay of Compounds: Salicylic Acid ([1]; up to 12 hours): <1% | Assay of Compounds: Aspirin ([1]; up to 24 hours): 94.7-95.3% | Assay of Compounds: Salicylic Acid ([1]; up to 24 hours): Max. ~6% | Purity of ASA in solution ([2]; 1. N,N-Dimethylacetamide (NNDMA)): >99% | Purity of ASA in solution ([2]; 2. NNDMA, Glycerol (0.1 in 10 ml), Tween 20 (0.1 in 10 ml)): Purity >99% | Purity of ASA in solution ([2]; 3. NNDMA, Glycerol (0.1 in 10 ml), Tween 40 (0.1 in 10 ml)): Purity >99% | Purity of ASA in solution ([2]; 4. NNDMA, Glycerol (0.1 in 10 ml), Tween 60 (0.1 in 10 ml)): Purity >99% | Purity of ASA in solution ([2]; 5. NNDMA, Glycerol (0.1 in 10 ml), Tween 80 (0.1 in 10 ml)): Purity >99% | Purity of ASA in solution ([2]; 6. NNDMA, Glycerol (0.1 in 10 ml)): Purity >99% | Purity of ASA in solution ([2]; 7. NNDMA, Glycerol (0.1 in 10 ml), DMSO (1-2%)): Purity >99% | Purity of ASA in solution ([2]; 8. NNDMA, DMSO (1.2%)): Purity >99% | Aspirin (HPLC purity) ([2]; ASA in NNDMA, 40° C., 6 months): 97.5% and 97.9%-98.6% | Aspirin (HPLC purity) ([2]; ASA in NNDMA, 40° C., 6 months, listed as aspirin): 98% | Aspirin (HPLC purity) ([2]; ASA in NNDMA, RT, 6 months): 99.4% | Salicylic Acid / hydrolysis product ([2]; ASA in NNDMA, RT, 6 months): 0.3% | stability of solution of ASA in NNDMA ([2]; Example 1: 1.0 gm of aspirin in 2 mL NNDMA): stable and resists hydrolysis | solution stability on pH adjustment ([2]; NNDMA solutions of Table 3, pH adjusted in the range of 1.5-6.0): without changing solution stability | aspirin purity (HPLC) ([2]; NNDMA, glycerol and Tween 20, RT, 6 months (FIG. 5)): 99% | HPLC Results: aspirin [2, 5]: ~95% aspirin | HPLC Results: salicylic acid [2, 5]: ~5% | amount of aspirin present ([2]; all 8 NNDMA solutions of Table 3, room temperature, 6 months): greater than 98% | hydrolysis on storage ([2]; all 8 NNDMA solutions of Table 3, stored at room temperature): no significant amount of hydrolysis could be detected | aspirin, HPLC peak 1 area [2, 6]: 95.4% | hydrolysis product, HPLC peak 2 [2, 6]: 4.9% | HPLC Results: salicylic acid ([2]; b. H2O (2.0 ml), 1-Propanol (0.5 ml), Tween 40, within 1 hr): ~5% | HPLC Results: salicylic acid ([2]; c. H2O (2.0 ml), 1-Propanol (0.5 ml), Tween 60, within 1 hr): ~5% | HPLC Results: salicylic acid ([2]; d. H2O (2.0 ml), 1-Propanol (0.5 ml), Tween 80, within 1 hr): ~5% | HPLC Results: salicylic acid ([2]; e. H2O (2.0 ml), 1-Propanol (0.5 ml), PEG 300, within 1 hr): ~5% | HPLC Results: salicylic acid ([2]; f. H2O (2.0 ml), 1-Propanol (0.5 ml), PEG 400, within 1 hr): ~5% | HPLC Results: salicylic acid ([2]; g. H2O (2.0 ml), 1-Propanol (0.5 ml), PEG 600, within 1 hr): ~5% | aspirin, HPLC peak 1 [2, 7]: 94.3% | hydrolysis product, HPLC peak 2 [2, 7]: 5.7% | HPLC Results: salicylic acid ([2]; h. H2O (2.0 ml), 1-Propanol (0.5 ml), Glycerol, within 1 hr): ~5% | HPLC Results: salicylic acid ([2]; i. H2O (2 ml), +DMSO (1-2%), Tween 20, within 1 hr): ~5% | HPLC Results: salicylic acid ([2]; j. H2O (2 ml), +DMSO (1-2%), Tween 40, within 1 hr): ~5% | HPLC Results: salicylic acid ([2]; k. H2O (2 ml), +DMSO (1-2%), Tween 60, within 1 hr): ~5% | HPLC Results: salicylic acid ([2]; l. H2O (2 ml), +DMSO (1-2%), Tween 80, within 1 hr): ~5% | HPLC Results: salicylic acid ([2]; m. Glycerine (1 ml), 1-Propanol (3 ml), Tween 80 (0.2 ml), within 1 hr): ~5% | HPLC Results: salicylic acid ([2]; n. Glycerine (1 ml), 1,2 propanediol (3 ml), Tween 80 (0.2 ml), within 1 hr): ~5% | HPLC Results: salicylic acid ([2]; o. Glycerine (1 ml), PEG 300 (3 ml), Tween 80 (0.2 ml), within 1 hr): ~5% | HPLC Results: salicylic acid ([2]; p. Glycerine (1 ml), PEG 400 (3 ml), Tween 80 (0.2 ml), within 1 hr): ~5% | HPLC Results: salicylic acid ([2]; q. Glycerine (1 ml), PEG 600 (3 ml), Tween 80 (0.2 ml), within 1 hr): ~5% | stability of clear solutions in NNDMA on storage ([2]; room temperature and 40° C., 6 months): without the formation of turbidity or a precipitate and without significant hydrolysis of aspirin | salicylic acid (hydrolysis product) in solutions of ASA ([2]; the 17 solvent systems of Table 2, within one hour, aspirin 50-75 mg/ml, pH 1.5 to 6.8): ≥ 5% | stability in N,N-dimethylacetamide ([2]; up to 500 mg/ml, stored at 40° C. for up to 6 months): without undergoing significant hydrolysis | solubility in water [3]: poor solubility
